According to ChEMBL document CHEMBL4265931, “Identification of dual Sigma1 receptor modulators/acetylcholinesterase inhibitors with antioxidant and neurotrophic properties, as neuroprotective agents” (Eur J Med Chem, 2018):
The source made the active and inactive calls. The rule behind the calls is not given here.

Tests used:
[1] = biological target: T1, Sigma intracellular receptor 2 (Rattus norvegicus, UniProt Q5U3Y7); test: Displacement of [3H]-DTG from S2R in rat liver membranes after 120 mins by scintillation counting assay; assay type: cell membranes, Membrane
T1 sequence (Q5U3Y7 whole entry): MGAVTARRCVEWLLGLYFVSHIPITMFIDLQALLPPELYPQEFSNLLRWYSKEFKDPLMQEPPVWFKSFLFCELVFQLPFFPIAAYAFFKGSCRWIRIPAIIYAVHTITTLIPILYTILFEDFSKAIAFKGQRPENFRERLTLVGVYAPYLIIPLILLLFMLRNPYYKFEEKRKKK

Acetylcholinesterase = Acetylcholinesterase (Electrophorus electricus, UniProt O42275); test: Inhibition of electric eel AChE using acetylthiocholine iodide as substrate preincubated for 5 mins followed by substrate addition and measured after 2 mins by Ellman's method
Chain of Acetylcholinesterase (O42275 whole entry): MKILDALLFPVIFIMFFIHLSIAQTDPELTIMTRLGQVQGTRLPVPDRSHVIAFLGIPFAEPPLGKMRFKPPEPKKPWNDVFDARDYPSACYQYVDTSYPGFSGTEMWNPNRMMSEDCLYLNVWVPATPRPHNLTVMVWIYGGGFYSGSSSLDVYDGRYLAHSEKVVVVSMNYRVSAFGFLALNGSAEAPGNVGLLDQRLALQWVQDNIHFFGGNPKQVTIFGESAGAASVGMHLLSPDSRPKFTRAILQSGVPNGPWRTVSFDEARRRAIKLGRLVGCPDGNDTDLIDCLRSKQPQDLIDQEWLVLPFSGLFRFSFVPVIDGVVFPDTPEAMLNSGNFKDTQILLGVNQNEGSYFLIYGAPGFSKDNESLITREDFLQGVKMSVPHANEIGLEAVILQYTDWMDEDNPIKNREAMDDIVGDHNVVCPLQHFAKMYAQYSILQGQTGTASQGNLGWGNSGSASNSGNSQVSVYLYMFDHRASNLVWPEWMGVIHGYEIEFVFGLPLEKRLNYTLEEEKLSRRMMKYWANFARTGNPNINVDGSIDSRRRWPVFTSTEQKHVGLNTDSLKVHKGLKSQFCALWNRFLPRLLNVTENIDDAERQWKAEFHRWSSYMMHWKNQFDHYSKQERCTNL

[2] = Displacement of [3H]-ifenprodil from GluN1a/GluN2B (unknown origin) expressed in mouse L(tk-) cell membranes after 120 mins by scintillation counting analysis; set-up: species or system Homo sapiens
[3] = Selectivity ratio of Ki for S2R in rat liver membranes to Ki for S1R in guinea pig brain cortex membranes; assay type: cell membranes
[4] = biological target: Sigma non-opioid intracellular receptor 1 (Cavia porcellus, UniProt Q60492); test: Displacement of [3H](+)-pentazocine from S1R in guinea pig brain cortex membranes after 120 mins by scintillation counting assay; assay type: cell membranes
Chain of Sigma non-opioid intracellular receptor 1 (Q60492 whole entry): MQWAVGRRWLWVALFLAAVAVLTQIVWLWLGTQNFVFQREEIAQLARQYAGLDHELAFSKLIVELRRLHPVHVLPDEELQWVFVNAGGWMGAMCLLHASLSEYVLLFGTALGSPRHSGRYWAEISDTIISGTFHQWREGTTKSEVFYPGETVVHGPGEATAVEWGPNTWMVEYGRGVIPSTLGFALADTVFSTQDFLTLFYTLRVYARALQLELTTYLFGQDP

SH-SY5Y [5] = test: Cytotoxicity against human SH-SY5Y cells assessed as reduction in cell viability after 24 hrs by MTS assay; assay type: cell-based; conditions: for Activity: human, sh-sy5y
in vitro [6] = conditions: human, SH-SY5Y cells
in vitro [7] = conditions: human, SH-SY5Y cells; remark: listed apart in the source
Description: Cytotoxicity against human SH-SY5Y cells assessed as cell viability at 50 uM after 48 hrs by MTS assay relative to control

[8] = Antioxidant activity assessed as DPPH free radical scavenging at 465 uM after 20 mins by UV-Vis spectrophotometric analysis relative to control; assay type: functional
in vitro [9] = conditions: human, SH-SY5Y cells; remark: listed apart in the source
Description: Cytotoxicity against human SH-SY5Y cells assessed as cell viability at 10 uM after 48 hrs by MTS assay relative to control

SH-SY5Y [10] = test: Cytotoxicity against human SH-SY5Y cells assessed as reduction in cell viability after 48 hrs by MTS assay; assay type: cell-based; conditions: for Activity: human, sh-sy5y
in vitro [11] = conditions: human, SH-SY5Y cells; remark: listed apart in the source
in vitro [12] = conditions: human, SH-SY5Y cells; remark: listed apart in the source
Description: Cytotoxicity against human SH-SY5Y cells assessed as cell viability at 50 uM after 24 hrs by MTS assay relative to control

in vitro [13] = conditions: human, SH-SY5Y cells; remark: listed apart in the source
Description: Cytotoxicity against human SH-SY5Y cells assessed as cell viability at 10 uM after 24 hrs by MTS assay relative to control

[14] = Antioxidant activity assessed as DPPH free radical scavenging after 20 mins by UV-Vis spectrophotometric analysis; assay type: functional
[15] = Neurotoxicity in Sprague-Dawley rat embryo DRG neuron at 2.5 to 5 uM after 24 to 48 hrs; assay type: toxicity
[16] = Neurotoxicity in Sprague-Dawley rat embryo DRG neuron at 10 uM after 24 hrs; assay type: toxicity
[17] = Neurotrophic activity in Sprague-Dawley rat embryo DRG neuron assessed as increase in neurite length at 2.5 uM after 24 hrs relative to control; assay type: functional
[18] = Neurotoxicity in Sprague-Dawley rat embryo DRG neuron at 10 uM after 48 hrs; assay type: toxicity
SH-SY5Y [19] = test: Neuroprotection against H2O2-induced oxidative stress in human SH-SY5Y cells assessed as reduction in ROS generation at 10 uM preincubated for 3 hrs followed by DCFDA addition for 45 mins and subsequent co-treatment with compound and H2O2 for 24 hrs by fluorescence assay relative to control; assay type: functional; set-up: scale not given: the % may be the effect or the level left

Row | Compound | Ki [1] [µM] | IC50 (Acetylcholinesterase) [µM] | Ki [2] [µM] | Ratio Ki [3] | Ki [4] [µM] | Activity (SH-SY5Y [5]) | viability at 24 h, 25 µM (in vitro [6]) [%] | viability at 48 h, 50 µM (in vitro [7]) [%] | Activity [8] [%] | viability at 48 h, 10 µM (in vitro [9]) [%] | Activity (SH-SY5Y [10]) | viability at 48 h, 25 µM (in vitro [11]) [%] | viability at 24 h, 50 µM (in vitro [12]) [%] | viability at 24 h, 10 µM (in vitro [13]) [%] | further results
1 | O=C(CCN1CCC(Cc2ccccc2)CC1)c1ccc2ccccc2c1 | 6.2 | 18.6 | > 1 | 29.4 | 0.211 |  |  |  |  |  |  |  |  |  | 
2 | Cl.O=C(CCCN1CCC(Cc2ccccc2)CC1)c1ccc2ccccc2c1 | 0.058 |  | 0.026 | 2.4 | 0.024 | Dose-dependent effect | 86 | 61 | 31.6 | 77 | Dose-dependent effect | 57 | 86 | 80.2 | 
3 | O=C(CCN1CCCCC1)c1ccccc1 | 0.749 |  | > 1 | 4.4 | 0.171 |  |  |  |  |  |  |  |  |  | 
4 | O=C(CCN1CCC(Cc2ccccc2)CC1)c1ccc(-c2ccccc2)cc1 | 3.9 |  | > 1 | 23.4 | 0.167 |  |  |  |  |  |  |  |  |  | 
5 | O=C(CCN1CCOCC1)c1ccccc1 | > 1 |  | > 1 |  | 0.606 |  |  |  |  |  |  |  |  |  | 
6 | Cl.O=C(CCN1CCOCC1)c1ccc2ccccc2c1 | > 1 |  | > 1 |  |  | Dose-dependent effect | 48 | 37 | 8.14 | 79 | Dose-dependent effect | 38 | 49 | 77 | 
7 | Cl.O=C(CCN1CCOCC1)c1ccc(-c2ccccc2)cc1 | > 1 |  | 0.723 |  |  | Dose-dependent effect | 73 | 62.4 | 22.1 | 100 | Dose-dependent effect | 66 | 83.3 | 100 | 
8 | Cl.O=C(CCCN1CCC(Cc2ccccc2)CC1)c1ccccc1 | 0.047 | 13.1 | 0.039 | 5.2 | 0.009 | Dose-dependent effect | 100 | 54 | 29.3 | 96 | Dose-dependent effect | 95 | 87 | 100 | 
9 | COc1cccc(C(=O)CN2CCC(Cc3ccccc3)CC2)c1 | 1.5 | 32.8 | 0.011 | 11.5 | 0.131 |  |  |  |  |  |  |  |  |  | 
10 | COc1ccc(C(=O)CCCN2CCC(Cc3ccccc3)CC2)cc1.Cl | 0.111 | 12.8 | 0.096 | 6.8 | 0.031 | Dose-dependent effect | 100 | 61 | 12.9 | 97.3 | Dose-dependent effect | 87 | 84.4 | 100 | 
11 | COc1ccc(C(=O)CCN2CCCCC2)cc1.Cl | 2.1 |  | 1.7 | 256 | 0.0079 | Dose-dependent effect | 86 | 43.4 | 14.4 | 104 | Dose-dependent effect | 49.4 | 63 | 119 | 
12 | COc1ccc(C(=O)CN2CCC(Cc3ccccc3)CC2)cc1.Cl | 2 |  | 0.016 | 74 | 0.027 | Dose-dependent effect | 98.4 | 52.5 | 65.6 | 85.5 | Dose-dependent effect | 69.3 | 87 | 103 | IC50 [14]: 147 µM
13 | COc1ccc2cc(C(=O)CN3CCC(Cc4ccccc4)CC3)ccc2c1 | 1.4 |  | > 1 | 4.9 | 0.286 |  |  |  |  |  |  |  |  |  | 
14 | Cl.O=C(CN1CCC(Cc2ccccc2)CC1)c1ccc2ccccc2c1 | 0.802 | 9.13 | 0.139 | 30 |  | Dose-dependent effect | 104 | 48.4 | 65.7 | 89.5 | Dose-dependent effect | 77.6 | 81.3 | 107 | IC50 (SH-SY5Y [5]; Homo sapiens, SH-SY5Y): 52 µM; Activity [15]: Non-Toxic; Activity [16]: Toxic; Activity [17]: 15%; Activity [18]: Non-Toxic; IC50 (SH-SY5Y [10]; Homo sapiens, SH-SY5Y): 57 µM; Activity (SH-SY5Y [19]): <=43%; IC50 [14]: 86.8 µM
15 | COc1ccc(C(=O)CCN2CCOCC2)cc1 | > 1 |  | > 1 |  | 0.301 |  |  |  |  |  |  |  |  |  | 
16 | CC(C(O)c1ccc(O)cc1)N1CCC(Cc2ccccc2)CC1 (centres undefined) [IFENPRODIL] |  |  | 0.01 |  |  |  |  |  |  |  |  |  |  |  | 
17 | COc1cccc(C(=O)CCCN2CCC(Cc3ccccc3)CC2)c1.Cl | 0.043 | 7.64 | 0.049 | 2.5 | 0.017 | Dose-dependent effect | 100 | 65 | 32 | 94.8 | Dose-dependent effect | 85.6 | 98 | 100 | 
18 | O=C(CN1CCC(Cc2ccccc2)CC1)c1ccc(-c2ccccc2)cc1 | > 1 |  | > 1 |  |  |  |  |  |  |  |  |  |  |  | 
19 | COc1cc(/C=C/C(=O)CC(=O)/C=C/c2ccc(O)c(OC)c2)ccc1O [CURCUMIN] |  |  |  |  |  |  | 76.5 | 59 | 71.3 | 100 |  | 58.7 | 71.5 | 100 | Activity (SH-SY5Y [19]): 0%; IC50 [14]: 13.5 µM
20 | O=C(CCCN1CCC(Cc2ccccc2)CC1)c1ccc(-c2ccccc2)cc1 | 0.704 | 13.9 | 0.096 | 5.2 | 0.135 |  |  |  |  |  |  |  |  |  | 
21 | COc1ccc2cc(C(=O)CCCN3CCC(Cc4ccccc4)CC3)ccc2c1 | 0.107 | 4.28 | 0.02 | 1.6 | 0.068 |  |  |  |  |  |  |  |  |  | 
22 | Cl.O=C(CCN1CCC(Cc2ccccc2)CC1)c1ccccc1 | 5.8 |  | 0.039 | 363 | 0.016 | Dose-dependent effect | 48 | 36 | 25.9 | 106 | Dose-dependent effect | 44 | 49 | 93 | 
23 | Cl.O=C(CCN1CCCCC1)c1ccc2ccccc2c1 | 0.178 |  | > 1 | 81 |  | Dose-dependent effect | 66.4 | 40 | 18.3 | 70.3 | Dose-dependent effect | 42 | 65.4 | 98.6 | 
24 | O=C(CN1CCC(Cc2ccccc2)CC1)c1ccccc1 | 2.3 |  | 0.215 | 30.7 | 0.075 |  |  |  |  |  |  |  |  |  | 
25 | C[C@H](CCN1CCCCC1)c1ccc(-c2ccccc2)cc1 | 0.045 |  | > 1 | 25 |  |  | 100 | 57.3 |  | 84 |  | 77.1 | 86 | 100 | Activity (SH-SY5Y [19]): inactive
26 | COc1ccc(C(=O)CCN2CCC(Cc3ccccc3)CC2)cc1.Cl | 2.4 | 22 | 0.198 | 218 | 0.011 | Dose-dependent effect | 63.9 | 44.7 | 2.8 | 97.4 | Dose-dependent effect | 50.2 | 56.5 | 99.9 | Activity (SH-SY5Y [19]): inactive
